Data published in PMC12648288, “Drastic Impact of Donor Substituents on Xanthenes in the PDT of Glioblastoma” (JACS Au, 2025).

Assays:
[1] = n-octanol/PBS distribution (LogP); assay type: physicochemical; details: Distribution coefficient in n-octanol/PBS solution
[2] = Absorption and emission spectra, fluorescence quantum yield; assay type: physicochemical; details: for ε (M^–1 cm^–1) / λabs (nm) / λems (nm): In PBS (pH 7.4, 1% DMSO); for φF (%) fluorescence quantum yield: Reference: methylene blue in MeOH (φF = 23%)
Procedure: First, the absorption and emission spectra of both PSs, NSeMorph and NSeAze, were recorded in PBS buffer (pH 7.4, 1% DMSO).
Photophysical Characterization
Fluorescence Quantum Yield
Fluorescence quantum yields of the samples were investigated using a fluorescence spectrometer (FLS 1000, Edinburgh Instruments) equipped with an integrating sphere accessory. A continuous-wave xenon lamp served as the excitation source, and the emitted fluorescence was detected with a standard photomultiplier (PMT-900) covering a wavelength range of 200-800 nm. During measurements, the PMT was cooled to - 20 °C using a built-in housing to reduce undesired dark current noise.
For quantum yield measurement, an integrating sphere (Edinburgh Instruments) was placed inside the spectrometer's sample compartment. The internal cavity of the sphere was coated with a PTFE-like material, enabling a reflectance of approximately […]
respectively. The sphere had two ports positioned 90° apart. The excitation beam was directed to the sample through the excitation port, and the fluorescence was collected from the emission port. The excitation port of the sphere included a lens to effectively focus the beam on the sample, while the emission port was an open aperture.
Prior to the experiments with the PSs, blank spectra were measured using the reference solvents (PBS, pH 7.4, 1% DMSO). For both measurements (blank and sample), two identical quartz cuvettes with equal volumes were used. Initially, the reference sample was placed inside the sphere, and the emission/excitation slits were adjusted to the excitation wavelength to ensure the PMT's response remained linear during measurements. To cover a scattering range, the emission scans started 20 nm below the actual excitation wavelengths and ended at 900 nm. Additionally, the step size and integration time of the measurements were set to 1 nm and 0.2 seconds, […]
Upon completing all emission measurements of the samples and references, the quantum yields of the samples were determined using the Fluoracle software. The built-in analysis tool calculates the quantum yield (QY) as: […]
where Es (EB) and Ss (SB) are the selected areas for the emitted and scattered signals

[3] = system: U118MG cells; assay: AO/EtBr staining for cell death; assay type: cell-based, human; details: IC50 concentration, after irradiation
Procedure: (§1) The rapid mitochondrial disruption often shifts the balance toward irreversible cell death pathways. […] In this regard, acridine orange/ethidium bromide (AO/EtBr) staining was performed to detect cell death. […]
(§2) Acridine Orange/Ethidium Bromide (AO/EtBr) staining for cell death
(§3) Dual acridine orange/ethidium bromide (AO/EtBr) staining was performed to discriminate live, early apoptotic and/or necrotic cells on the basis of membrane permeability.1,2 U87MG and U118MG cells were seeded in 24-well plates at a density of 5 × 10⁴ cells/well and treated with the IC₅₀ concentrations of the photosensitizers NSeMorph and NSeAze. After irradiation, cells were rested at 37 °C for 20 minutes, followed by staining with AO (2.5 µg/ml) and EtBr (2.5 µg/ml) in serum-free DMEM […]
(§4) under dark conditions for an additional 20-30 minutes. Subsequently, cells were washed with 1X PBS, and confocal images were taken at 500/525 nm (ex/em) for AO […]
(§5) Ta b l e S3. Comparison of recently reported PSs for the treatment of glioblastoma multiforme.
(§6) Photosensitizer Abs* Mwt IC (μM) Cell Line PI Ref. […]

[4] = system: U87MG cells; assay: AO/EtBr staining for cell death; assay type: cell-based, human; details: IC50 concentration, after irradiation
Procedure: as §1, §2, §3, §4, §5, §6

[5] = assay type: physicochemical; details: pH 5.4
Procedure: Before singlet oxygen trapping experiments were conducted, the photostability of NSeMorph and NSeAze was evaluated under irradiation with a 660 nm LED light source (24.3 mW/cm^2). […] Subsequently, their singlet oxygen generation capabilities were assessed in PBS buffer. 2,2′-(Anthracene-9,10-diyl)-bis(methylene)-dimalonic acid was used as a singlet oxygen trap to determine the quantum yields of singlet oxygen generation (ΦΔ). […] Furthermore, the ROS generation capabilities of the PSs were also evaluated using singlet oxygen sensor green (SOSG).
The gradual but pronounced lysosomal accumulation over time of NSeMoprh, coupled with only moderate mitochondrial targeting, restrict its ability to induce cell death via direct mitochondrial ROS production effectively. Conversely, NSeAze achieves rapid and efficient mitochondrial localization within the first hour of treatment in addition to significant lysosomal localization as well. […] To eliminate the possibility of degradation in lysosomes due to their acidic nature, the stabilities of both NSeMorph and NSeAze were evaluated at different pHs under both dark and light conditions.
Figure S5. Photostability of NSeMorph (20 μM) in sodium citrate buffer (1% DMSO) a. pH 5.4 and e. pH 6.4 upon irradiation with LED light (660 nm, 100 s total irradiation time) and its time dependent absorbance profile at b. pH 5.4, f. pH 6.4. […]

Row | Structure (SMILES) | logP [1] | ε (M^–1 cm^–1) [2] | λabs (nm) [2] [nm] | λems (nm) [2] [nm] | φF (%) fluorescence quantum yield [2] [%] | Cell death type (AO/EtBr) [3] | Cell death type (AO/EtBr) [4] | Photostability [5]
1 | c1cc2nc3ccc(=[N+]4CCC4)cc-3[se]c2cc1N1CCC1 [NSeAze] | 0.81 | 15,300 M^–1 cm^–1 | 671 | 695 | 8.2 | late apoptosis/necrosis | early apoptosis | no significant photodecomposition
2 | c1cc2nc3ccc(=[N+]4CCOCC4)cc-3[se]c2cc1N1CCOCC1 [NSeMorph] | -0.42 | 16,600 M^–1 cm^–1 | 671 | 717 | 1.1 | early apoptotic pattern | early apoptosis | no significant photodecomposition
